{
  "source": "paper PMC11111408",
  "about": "“Concurrent inhibition of oncogenic and wild-type RAS-GTP for cancer therapy” (Nature, 2024)",
  "tested_on": "panel of 183 cancer cell lines",
  "assay": "Cell panel of 183 cancer cell lines, viability (CTG) at Crown Bioscience",
  "assay_type": "cell-based",
  "details": "Homo sapiens",
  "from_the_text": "The panel consisted of cell lines with any substitution at position 12 of KRAS, NRAS or HRAS (KRAS(G12X), NRAS(G12X), HRAS(G12X)); substitutions in KRAS, NRAS or HRAS at any position other than 12, 13 and 61 (KRAS(other/VUS), NRAS(other/VUS), HRAS(other/VUS)); other oncogenic mutations in the RAS pathway (ABL1, ALK, ARAF, BRAF, CBL, EGFR, ERBB2, ERBB3, ERBB4, ERRFI1, FGFR1, FGFR2, FGFR3, FGFR4, FLT3, HRAS, IGF1R, JAK2, KIT, MAP2K1, MAP2K2, MAPK1, MET, NF1, NRAS, NTRK1, NTRK2, NTRK3, PDGFRA, PTPN11, RAC1, RAF1, RASA1, RET, RIT1, ROS1 and SOS1); and no oncogenic mutations in the RAS pathway. […] Cells were incubated for 120 h, and cell viability was determined using the CellTiter-Glo Luminescent Cell Viability Assay (CTG) (Promega, G7572) according to the manufacturer’s instructions.",
  "note": "Where two headings read alike, the source gives them in different places.",
  "data": [
    {"compound": "CCn1c(-c2cc(N3CCN(C4CC4)CC3)cnc2[C@H](C)OC)c2c3cc(ccc31)-c1csc(n1)C[C@H](NC(=O)[C@H]1[C@@H]3COC[C@@H]31)C(=O)N1CCC[C@H](N1)C(=O)OCC(C)(C)C2", "note": "[RMC-7977]", "values": [
      {"measurement": "EC50", "setting": "read-out: RMC-7977 EC50 (M), HEP3B217, RAS pathway WT, Liver", "result": "9.36e-09", "unit": "M"},
      {"measurement": "EC50", "setting": "read-out: RMC-7977 EC50 (M), HM7, KRAS G12D, Large intestine/Colorectum", "result": "1.86e-08", "unit": "M"},
      {"measurement": "EC50", "setting": "read-out: RMC-7977 EC50 (M), HS852T, NRAS G12V, Skin", "result": "4.07e-08", "unit": "M"},
      {"measurement": "EC50", "setting": "read-out: RMC-7977 EC50 (M), HUH28, PTPN11 mut, Liver/Bile duct", "result": "3.91e-08", "unit": "M"},
      {"measurement": "EC50", "setting": "read-out: RMC-7977 EC50 (M), KG1, FGFR fusion, Blood/leukemia", "result": "9.16e-09", "unit": "M"},
      {"measurement": "EC50", "setting": "read-out: RMC-7977 EC50 (M), L82, ALK fusion, Blood/lymphoma", "result": "2e-08", "unit": "M"},
      {"measurement": "EC50", "setting": "read-out: RMC-7977 EC50 (M), NOZ, KRAS G12V, Liver/Bile duct", "result": "4.17e-09", "unit": "M"},
      {"measurement": "EC50", "setting": "read-out: RMC-7977 EC50 (M), OZ, KRAS Q61L, Liver/Bile duct", "result": "3.55e-09", "unit": "M"},
      {"measurement": "EC50", "setting": "read-out: RMC-7977 EC50 (M), PC9, EGFR mut, Lung", "result": "1.56e-08", "unit": "M"},
      {"measurement": "EC50", "setting": "read-out: RMC-7977 EC50 (M), RBE, KRAS G12V, Liver/Bile duct", "result": "3.39e-10", "unit": "M"},
      {"measurement": "EC50", "setting": "read-out: RMC-7977 EC50 (M), RKO, BRAF V600E, Large intestine/Colorectum", "result": "> 1e-06", "unit": "M"},
      {"measurement": "EC50", "setting": "read-out: RMC-7977 EC50 (M), RT4, FGFR fusion, Bladder", "result": "1.32e-08", "unit": "M"},
      {"measurement": "EC50", "setting": "read-out: RMC-7977 EC50 (M), SCH, RAS pathway WT, Stomach", "result": "> 1e-06", "unit": "M"},
      {"measurement": "EC50", "setting": "read-out: RMC-7977 EC50 (M), SNU719, NRAS Q61L, Stomach", "result": "6.76e-09", "unit": "M"},
      {"measurement": "EC50", "setting": "read-out: RMC-7977 EC50 (M), SNU2535, ALK fusion, Lung", "result": "6.42e-09", "unit": "M"},
      {"measurement": "EC50", "setting": "read-out: RMC-7977 EC50 (M), SNUC2A, KRAS G12D, Large intestine/Colorectum", "result": "2.45e-09", "unit": "M"},
      {"measurement": "EC50", "setting": "read-out: RMC-7977 EC50 (M), SR, ALK fusion, Thymus", "result": "1.41e-08", "unit": "M"},
      {"measurement": "EC50", "setting": "read-out: RMC-7977 EC50 (M), T24, HRAS G12V, Bladder", "result": "1.2e-09", "unit": "M"},
      {"measurement": "EC50", "setting": "read-out: RMC-7977 EC50 (M), T84, KRAS G13D, Large intestine/Colorectum", "result": "5.62e-08", "unit": "M"},
      {"measurement": "EC50", "setting": "read-out: RMC-7977 EC50 (M), TE441T, RAS pathway WT, Muscle", "result": "> 1e-06", "unit": "M"},
      {"measurement": "EC50", "setting": "read-out: RMC-7977 EC50 (M), TJ905, NF1 LOF, Brain&Nerves", "result": "1.06e-07", "unit": "M"},
      {"measurement": "EC50", "setting": "read-out: RMC-7977 EC50 (M), YCC2, KRAS G12S, Stomach", "result": "2.19e-09", "unit": "M"},
      {"measurement": "EC50", "setting": "read-out: RMC-7977 EC50 (median), median over ALK fusion cell lines", "result": "1.41e-08", "unit": "M"},
      {"measurement": "EC50", "setting": "read-out: RMC-7977 EC50 (median), median over BRAF V600E cell lines", "result": "> 1e-06", "unit": "M"},
      {"measurement": "EC50", "setting": "read-out: RMC-7977 EC50 (median), median over BRAF mut other cell lines", "result": "7.54e-08", "unit": "M"},
      {"measurement": "EC50", "setting": "read-out: RMC-7977 EC50 (median), median over EGFR mut cell lines", "result": "4.52e-09", "unit": "M"},
      {"measurement": "EC50", "setting": "read-out: RMC-7977 EC50 (median), median over ERBB3 mut cell lines", "result": "5.92e-09", "unit": "M"},
      {"measurement": "EC50", "setting": "read-out: RMC-7977 EC50 (median), median over FGFR fusion cell lines", "result": "7.08e-09", "unit": "M"},
      {"measurement": "EC50", "setting": "read-out: RMC-7977 EC50 (median), median over HRAS G12D cell lines", "result": "8.45e-09", "unit": "M"},
      {"measurement": "EC50", "setting": "read-out: RMC-7977 EC50 (median), median over HRAS G12V cell lines", "result": "1.2e-09", "unit": "M"},
      {"measurement": "EC50", "setting": "read-out: RMC-7977 EC50 (median), median over HRAS G161R cell lines", "result": "> 1e-06", "unit": "M"},
      {"measurement": "EC50", "setting": "read-out: RMC-7977 EC50 (median), median over HRAS L133R cell lines", "result": "1.23e-08", "unit": "M"},
      {"measurement": "EC50", "setting": "read-out: RMC-7977 EC50 (median), median over HRAS Q61H cell lines", "result": "4.57e-09", "unit": "M"},
      {"measurement": "EC50", "setting": "read-out: RMC-7977 EC50 (median), median over HRAS Q61L cell lines", "result": "1.62e-08", "unit": "M"},
      {"measurement": "EC50", "setting": "read-out: RMC-7977 EC50 (median), median over KRAS A59T cell lines", "result": "1.02e-09", "unit": "M"},
      {"measurement": "EC50", "setting": "read-out: RMC-7977 EC50 (median), median over KRAS G12A cell lines", "result": "1.2e-08", "unit": "M"},
      {"measurement": "EC50", "setting": "read-out: RMC-7977 EC50 (median), median over KRAS G12C cell lines", "result": "1.84e-09", "unit": "M"},
      {"measurement": "EC50", "setting": "read-out: RMC-7977 EC50 (median), median over KRAS G12D cell lines", "result": "2.86e-09", "unit": "M"},
      {"measurement": "EC50", "setting": "read-out: RMC-7977 EC50 (median), median over KRAS G12R cell lines", "result": "2.76e-09", "unit": "M"},
      {"measurement": "EC50", "setting": "read-out: RMC-7977 EC50 (median), median over KRAS G12S cell lines", "result": "3.21e-09", "unit": "M"},
      {"measurement": "EC50", "setting": "read-out: RMC-7977 EC50 (median), median over KRAS G12V cell lines", "result": "1.15e-09", "unit": "M"},
      {"measurement": "EC50", "setting": "read-out: RMC-7977 EC50 (median), median over KRAS G13C cell lines", "result": "1.41e-08", "unit": "M"},
      {"measurement": "EC50", "setting": "read-out: RMC-7977 EC50 (median), median over KRAS G13D cell lines", "result": "3.16e-08", "unit": "M"},
      {"measurement": "EC50", "setting": "read-out: RMC-7977 EC50 (median), median over KRAS P121H cell lines", "result": "> 1e-06", "unit": "M"},
      {"measurement": "EC50", "setting": "read-out: RMC-7977 EC50 (median), median over KRAS Q61H cell lines", "result": "> 1e-06", "unit": "M"},
      {"measurement": "EC50", "setting": "read-out: RMC-7977 EC50 (median), median over KRAS Q61K cell lines", "result": "3.22e-09", "unit": "M"},
      {"measurement": "EC50", "setting": "read-out: RMC-7977 EC50 (median), median over KRAS Q61L cell lines", "result": "9e-09", "unit": "M"},
      {"measurement": "EC50", "setting": "read-out: RMC-7977 EC50 (median), median over KRAS R97I cell lines", "result": "2.75e-09", "unit": "M"},
      {"measurement": "EC50", "setting": "read-out: RMC-7977 EC50 (median), median over MET amp cell lines", "result": "4.57e-09", "unit": "M"},
      {"measurement": "EC50", "setting": "read-out: RMC-7977 EC50 (median), median over NF1 LOF cell lines", "result": "3.25e-08", "unit": "M"},
      {"measurement": "EC50", "setting": "read-out: RMC-7977 EC50 (median), median over NRAS G12V cell lines", "result": "4.07e-08", "unit": "M"},
      {"measurement": "EC50", "setting": "read-out: RMC-7977 EC50 (median), median over NRAS Q61K cell lines", "result": "1.91e-09", "unit": "M"},
      {"measurement": "EC50", "setting": "read-out: RMC-7977 EC50 (median), median over NRAS Q61L cell lines", "result": "6.76e-09", "unit": "M"},
      {"measurement": "EC50", "setting": "read-out: RMC-7977 EC50 (median), median over NRAS Q61R cell lines", "result": "9.12e-09", "unit": "M"},
      {"measurement": "EC50", "setting": "read-out: RMC-7977 EC50 (median), median over NRAS Y137H cell lines", "result": "2.88e-08", "unit": "M"},
      {"measurement": "EC50", "setting": "read-out: RMC-7977 EC50 (median), median over NTRK1 fusion cell lines", "result": "5.14e-09", "unit": "M"},
      {"measurement": "EC50", "setting": "read-out: RMC-7977 EC50 (median), median over PTPN11 mut cell lines", "result": "7.95e-09", "unit": "M"},
      {"measurement": "EC50", "setting": "read-out: RMC-7977 EC50 (median), median over RAS pathway WT cell lines", "result": "1e-07", "unit": "M"},
      {"measurement": "EC50", "setting": "read-out: RMC-7977 EC50 (median), median over RET fusion cell lines", "result": "5.15e-09", "unit": "M"},
      {"measurement": "EC50", "setting": "read-out: RMC-7977 EC50 (median), median over ROS1 fusion cell lines", "result": "7.49e-09", "unit": "M"}
    ]}
  ]
}
